The values that follow come from patent US20130109682A1, “CYCLIC ETHER COMPOUNDS USEFUL AS KINASE INHIBITORS” (NOVARTIS AG, priority 2010, published 2013).

The structures appear in SMILES notation.

Assay type in all cases: biochemical
Experiment [1] concerns the target PIM2 (Homo sapiens, UniProt Q9P1W9). In words: KinaseGlo Pim2 ATP depletion assay. The gist of the method: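 Luminescent ATP-depletion read-out of PIM2 phosphorylating BAD peptide (RSRHSSYPAGT-OH). Final conditions: 5 nM PIM2, 4 μM ATP, 10 μM peptide, 2.5% DMSO in 50 mM HEPES pH 7.5, 5 mM MgCl2, 1 mM DTT, 0.05% BSA. Enzyme–peptide preincubated 15 min with compound; reaction run to ~50% ATP depletion.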

The target of experiment [2] is T1, PIM3 (Homo sapiens, UniProt Q86V86). In words: KinaseGlo Pim3 ATP depletion assay. An outline of the steps:
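Kinase was preincubated 15 min with BAD peptide in HEPES pH 7.5/MgCl2/DTT/BSA before ATP was added. Final concentrations were 40 μM ATP, 100 μM BAD peptide and 2.5% DMSO, with 5 nM enzyme. The reaction ran to ~50% ATP depletion and remaining ATP was read by KinaseGlo Plus luminescence.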

For experiment [3], the target named is T2, PIM1 (Homo sapiens, UniProt P11309). Kind of experiment: KinaseGlo Pim1 ATP depletion assay. An outline of the steps:
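2.5 nM PIM1 preincubated 15 min with compound and 40 μM BAD peptide in 50 mM HEPES pH 7.5, 5 mM MgCl2, 1 mM DTT, 0.05% BSA, 2.5% DMSO. The reaction was started with 20 μM ATP (final) and run to about 50% ATP depletion. Remaining ATP read by KinaseGlo Plus luminescence to give IC50.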

Experiment [4] has as its target T1, PIM3. Kind of experiment: Pim 3 AlphaScreen assay (high ATP). The following applies: read-out: Pim3 IC50. The gist of the method: (§1)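 This is a bead-based AlphaScreen run at high ATP (11-125× Km) with biotin-Bad peptide (100 nM in the substrate mix), in 50 mM Hepes pH 7.5, 5 mM MgCl2, 0.05% BSA, 0.01% Tween-20, 1 mM DTT and 2.5% DMSO final. After ~2 h the reaction was stopped with EDTA. Phospho-peptide was detected overnight with anti-phospho Ser/Thr antibody on Protein A and streptavidin beads, giving IC50.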

The target in experiment [5] is T2, PIM1. In words: Pim 1 AlphaScreen assay (high ATP). Particulars: read-out: Pim1 IC50. An outline of the steps:
as §1

Sequence of PIM2 (Q9P1W9 whole entry): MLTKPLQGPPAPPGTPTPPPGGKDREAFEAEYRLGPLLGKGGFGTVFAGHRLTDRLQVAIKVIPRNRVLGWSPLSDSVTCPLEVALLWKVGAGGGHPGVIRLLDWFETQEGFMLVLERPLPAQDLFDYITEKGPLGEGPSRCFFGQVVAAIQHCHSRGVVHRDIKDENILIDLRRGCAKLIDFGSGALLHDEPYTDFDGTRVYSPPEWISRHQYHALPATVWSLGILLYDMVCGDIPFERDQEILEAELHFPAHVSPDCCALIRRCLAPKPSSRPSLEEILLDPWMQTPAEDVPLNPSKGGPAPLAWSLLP
T2 sequence (P11309 whole entry): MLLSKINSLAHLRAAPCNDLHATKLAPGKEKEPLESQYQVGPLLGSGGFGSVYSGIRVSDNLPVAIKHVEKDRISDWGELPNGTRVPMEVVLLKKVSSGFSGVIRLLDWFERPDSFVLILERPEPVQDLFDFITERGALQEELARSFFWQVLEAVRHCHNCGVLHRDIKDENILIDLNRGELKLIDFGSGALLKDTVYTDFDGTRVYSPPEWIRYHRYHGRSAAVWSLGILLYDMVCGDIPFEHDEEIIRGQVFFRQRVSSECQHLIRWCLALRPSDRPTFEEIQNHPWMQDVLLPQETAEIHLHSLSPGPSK

Take `C=C1[C@@H](O)C[C@@H](c2ccncc2NC(=O)c2nc(-c3ccccc3)cnc2N)OC12CC2` [Example 5, 3-amino-N-(4-((5S,7S)-7-hydroxy-8-methylene-4-oxaspiro[2.5]octan-5-yl)pyridin-3-yl)-6-phenylpyrazine-2-carboxamide]: the IC50 was determined as 254 nM in experiment [1], 37.3 nM in experiment [2] and 25.9 nM in experiment [3].

With `C[C@H]1O[C@@H](c2ccncc2NC(=O)c2nc(-c3ccccc3)ncc2N)C[C@@H](O)[C@]1(C)O` [Example 32, 5-amino-N-(4-((2R,4R,5S,6R)-4,5-dihydroxy-5,6-dimethyltetrahydro-2H-pyran-2-yl)pyridin-3-yl)-2-phenylpyrimidine-4-carboxamide], the IC50 in experiment [1] amounted to 44 nM; in experiment [2] it was 3 nM; in experiment [3] it was 5 nM.

As for `Nc1ncc(-c2ccccc2)nc1C(=O)Nc1cnccc1[C@H]1C[C@@H](O)[C@H](O)[C@@H](CCl)O1` [Example 36, 3-amino-N-(4-((2R,4R,5S,6S)-6-(chloromethyl)-4,5-dihydroxytetrahydro-2H-pyran-2-yl)pyridin-3-yl)-6-phenylpyrazine-2-carboxamide], the IC50 came to 8 nM in experiment [1], 2 nM in experiment [2] and 1 nM in experiment [3].

In the case of `CC[C@H]1O[C@@H](c2ccncc2NC(=O)c2nc(-c3ccccc3)ncc2N)C[C@@H](O)[C@@H]1O` [Example 39, 5-amino-N-(4-((2R,4R,5S,6R)-6-ethyl-4,5-dihydroxytetrahydro-2H-pyran-2-yl)pyridin-3-yl)-2-phenylpyrimidine-4-carboxamide], the 50% inhibitory concentration (IC50) in experiment [1] was found to be 40 nM; in experiment [2], 4 nM; in experiment [3], 4 nM.

For `C[C@H]1O[C@@H](c2ccncc2NC(=O)c2nc(-c3ccccc3)cnc2N)[C@H](F)[C@@H](O)[C@]1(C)O` [Example 58, 3-amino-N-(4-((2S,3R,4S,5S,6R)-3-fluoro-4,5-dihydroxy-5,6-dimethyltetrahydro-2H-pyran-2-yl)pyridin-3-yl)-6-phenylpyrazine-2-carboxamide], the IC50 is 276 nM in experiment [1], 27 nM in experiment [2] and 9 nM in experiment [3].

In the case of `C[C@@H]1O[C@H](c2ccncc2NC(=O)c2nc(-c3ccccc3)cnc2N)[C@@H](F)[C@H](O)[C@@]1(C)O` [Example 63, 3-amino-N-(4-((2R,3S,4R,5R,6S)-3-fluoro-4,5-dihydroxy-5,6-dimethyltetrahydro-2H-pyran-2-yl)pyridin-3-yl)-6-phenylpyrazine-2-carboxamide], the IC50 in experiment [1] came out at 924 nM; in experiment [2], 31 nM; in experiment [3], 6 nM.

Consider `C[C@H]1O[C@@H](c2ccncc2NC(=O)c2nc(-c3ccccc3)cnc2N)C[C@@H](O)[C@]1(C)O` [Example 84, 3-amino-N-(4-((2R,4R,5S,6R)-4,5-dihydroxy-5,6-dimethyltetrahydro-2H-pyran-2-yl)pyridin-3-yl)-6-phenylpyrazine-2-carboxamide], for which the IC50 in experiment [1] came to 33 nM; in experiment [2] it was 3 nM; in experiment [3], 1 nM.

For the compound `C[C@@H]1O[C@H](c2ccncc2NC(=O)c2nc(-c3ccccc3)cnc2N)C[C@H](O)[C@@]1(C)O` [Example 86, 3-amino-N-(4-((2S,4S,5R,6S)-4,5-dihydroxy-5,6-dimethyltetrahydro-2H-pyran-2-yl)pyridin-3-yl)-6-phenylpyrazine-2-carboxamide], the IC50 came out at 164 nM in experiment [1], 15 nM in experiment [2] and 5 nM in experiment [3].

Regarding `CC[C@]1(O)[C@H](O)C[C@H](c2ccncc2NC(=O)c2nc(-c3c(F)cccc3F)ncc2N)O[C@@H]1C` [Example 143, 5-amino-2-(2,6-difluorophenyl)-N-(4-((2R,4R,5S,6R)-5-ethyl-4,5-dihydroxy-6-methyltetrahydro-2H-pyran-2-yl)pyridin-3-yl)pyrimidine-4-carboxamide], the results for the IC50 in experiment [1], in experiment [2] and in experiment [3] were 3.5 nM, 2.4 nM and 1.3 nM, respectively.

As to `Nc1ncc(-c2ccccc2)nc1C(=O)Nc1cnccc1[C@H]1C[C@@H](O)[C@@]2(O)CCCC[C@H]2O1` [Example 173, 3-amino-N-(4-((2R,4R,4aS,8aR)-4,4a-dihydroxyoctahydro-2H-chromen-2-yl)pyridin-3-yl)-6-phenylpyrazine-2-carboxamide], the figures for the IC50 in experiment [1], in experiment [2] and in experiment [3] were 15.7 nM, 3.6 nM and 2.2 nM, respectively.

Consider `Nc1ncc(-c2ccccc2)nc1C(=O)Nc1cnccc1[C@@H]1C[C@H](O)[C@]2(O)CCCC[C@@H]2O1` [Example 176, 3-amino-N-(4-((2S,4S,4aR,8aS)-4,4a-dihydroxyoctahydro-2H-chromen-2-yl)pyridin-3-yl)-6-phenylpyrazine-2-carboxamide], for which the IC50 worked out at 1820 nM in experiment [1], 202 nM in experiment [2] and 63.8 nM in experiment [3].

Turning to `O=C(Nc1cnccc1[C@H]1C[C@@H](O)[C@@]2(O)CCCC[C@H]2O1)c1c[nH]cc(-c2ccccc2)c1=O` [Example 178, N-(4-((2R,4R,4aS,8aR)-4,4a-dihydroxyoctahydro-2H-chromen-2-yl)pyridin-3-yl)-4-oxo-5-phenyl-1,4-dihydropyridine-3-carboxamide], the IC50 in experiment [1] was determined as 2180 nM; in experiment [2] it was 124 nM; in experiment [3], 154 nM.

For the compound `Nc1ncc(-c2ccccc2)nc1C(=O)Nc1cnccc1[C@@H]1C[C@H](O)[C@]2(O)CCC[C@@H]2O1` [Example 186, 3-amino-N-(4-((2S,4S,4aR,7aS)-4,4a-dihydroxyoctahydrocyclopenta[b]pyran-2-yl)pyridin-3-yl)-6-phenylpyrazine-2-carboxamide], the IC50 in experiment [1] is 3190 nM; in experiment [2], 610 nM; in experiment [3] it was 159 nM.

Consider `Nc1ncc(-c2ccccc2)nc1C(=O)Nc1cnccc1[C@H]1C[C@@H](O)[C@@]2(O)CCC[C@H]2O1` [Example 195, 3-amino-N-(4-((2R,4R,4aS,7aR)-4,4a-dihydroxyoctahydrocyclopenta[b]pyran-2-yl)pyridin-3-yl)-6-phenylpyrazine-2-carboxamide], for which the IC50 in experiment [1] is 12.1 nM; in experiment [2] it was 3.2 nM; in experiment [3], 2.2 nM.

For the compound `O=C1CC[C@H]2O[C@@H](c3ccncc3NC(=O)c3ccc(F)c(-c4c(F)cccc4F)n3)C[C@@H](O)[C@@H]2N1` [Example 196, 6-(2,6-difluorophenyl)-5-fluoro-N-(4-((2R,4R,4aS,8aR)-4-hydroxy-6-oxooctahydro-2H-pyrano[3,2-b]pyridin-2-yl)pyridin-3-yl)picolinamide], the IC50 stood at 10.8 nM in experiment [1], 3.6 nM in experiment [2] and 3.4 nM in experiment [3].

For the compound `N[C@@H]1C[C@H](c2ccncc2NC(=O)c2ccc(F)c(-c3c(F)cccc3F)n2)O[C@@H]2CCC[C@]12O` [Example 210, N-(4-((2R,4R,4aS,7aR)-4-amino-4a-hydroxyoctahydrocyclopenta[b]pyran-2-yl)pyridin-3-yl)-6-(2,6-difluorophenyl)-5-fluoropicolinamide], the IC50 was determined as 2.4 nM in experiment [1], 2.3 nM in experiment [2] and 0.5 nM in experiment [3].

For `Nc1cnc(-c2c(F)cccc2F)nc1C(=O)Nc1cnccc1[C@H]1C[C@@H](N)[C@@]2(O)CCC[C@H]2O1` [Example 213, 5-amino-N-(4-((2R,4R,4aS,7aR)-4-amino-4a-hydroxyoctahydrocyclopenta[b]pyran-2-yl)pyridin-3-yl)-2-(2,6-difluorophenyl)pyrimidine-4-carboxamide], the IC50 in experiment [1] is 6.3 nM; in experiment [2], 5.8 nM; in experiment [3] it was 3.9 nM.

Regarding `C[C@H]1O[C@@H](c2ccncc2NC(=O)c2ccc(F)c(-c3c(F)cccc3F)n2)C[C@@H](N)[C@]1(C)O` [Example 219, N-(4-((2R,4R,5S,6R)-4-amino-5-hydroxy-5,6-dimethyltetrahydro-2H-pyran-2-yl)pyridin-3-yl)-6-(2,6-difluorophenyl)-5-fluoropicolinamide], the values for the IC50 in experiment [4] and in experiment [5] were 1.4 nM and 0.09 nM, respectively.

Consider `N[C@@H]1C[C@H](c2ccncc2NC(=O)c2ccc(F)c(-c3c(F)cccc3F)n2)O[C@@H]2CCC[C@H]12` [Example 224, N-(4-((2R,4R,4aR,7aR)-4-aminooctahydrocyclopenta[b]pyran-2-yl)pyridin-3-yl)-6-(2,6-difluorophenyl)-5-fluoropicolinamide], for which the IC50 amounted to 4.1 nM in experiment [4] and 0.1 nM in experiment [5].

`N[C@H]1C[C@@H](c2ccncc2NC(=O)c2csc(-c3c(F)cccc3F)n2)O[C@H]2CCC[C@H]21` [Example 230, N-(4-((2S,4S,4aS,7aS)-4-aminooctahydrocyclopenta[b]pyran-2-yl)pyridin-3-yl)-2-(2,6-difluorophenyl)thiazole-4-carboxamide]: the IC50 in experiment [4] came to 482 nM; in experiment [5], 6.83 nM.
